From PubChem BioAssay (NCI)
“And” between values parts separate entries of the source, which are not always exact repeats. Equal values may be shown once.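 Cells were grown in 96-well plates and exposed to each compound for 48 hours at five concentrations; endpoints were interpolated linearly between bracketing concentrations, or set to the highest concentration if not reached. At the GI50, growth is halved. TGI is the concentration that stops growth completely.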

Columns and labels:
Experiment in all cases: NCI-60 cell line screen, 48 h
[1] = test system: U251 CNS
[2] = test system: SNB-19 CNS
[3] = test system: OVCAR-3 ovarian
[4] = test system: HL-60(TB) leukemia
[5] = test system: UACC-62 melanoma
[6] = test system: NCI-H522 lung
[7] = test system: SK-OV-3 ovarian
[8] = test system: SF-539 CNS
[9] = test system: UACC-257 melanoma
[10] = test system: HS 578T breast

CC(C)c1cc(CNc2nc(Nc3cc(C4CC4)[nH]n3)cc(N3CCN(C)CC3)n2)on1
GI50 [1]: 3.49 µM and 0.408 µM
TGI [1]: > 10 µM and 10.3 µM
GI50 [2]: 4.59 µM and 0.471 µM
TGI [2]: > 10 µM and 23.3 µM
GI50 [3]: 2.14 µM and 0.256 µM
TGI [3]: > 10 µM and 4.1 µM
GI50 [4]: 0.359 µM and 0.087 µM
TGI [4]: > 10 µM and 1.6 µM
TGI [5]: > 10 µM and 2.35 µM
GI50 [6]: 0.422 µM and 0.992 µM
TGI [6]: 4.3 µM and 3.83 µM
GI50 [7]: 0.904 µM and 0.335 µM
TGI [7]: 4.45 µM and 5.4 µM
TGI [8]: > 10 µM and 1.02 µM
TGI [9]: > 10 µM and 5.53 µM

Cc1[nH]c(=O)nc(CC(O)(c2ccccc2)c2ccccc2)c1-c1ccccc1
TGI [1]: > 100 µM
TGI [2]: > 100 µM
TGI [3]: > 100 µM
TGI [4]: > 100 µM
TGI [5]: > 100 µM
TGI [6]: > 100 µM
TGI [7]: > 100 µM
TGI [8]: > 100 µM
TGI [9]: > 100 µM

COC1(OC)CC2C(=O)N(Cc3ccccc3)C1CC2S(=O)(=O)c1ccccc1 (stereo not given)
TGI [1]: > 100 µM
TGI [2]: > 100 µM
TGI [3]: > 100 µM
TGI [4]: > 100 µM
TGI [5]: > 100 µM
TGI [6]: > 100 µM
TGI [7]: > 100 µM
TGI [8]: > 100 µM
TGI [9]: > 100 µM

CCOC(=O)CC1=NC(=Nc2cc(Cl)ccc2Cl)SC1
TGI [1]: > 100 µM
TGI [2]: > 100 µM
TGI [3]: > 100 µM
TGI [4]: > 100 µM
TGI [5]: > 100 µM
TGI [6]: > 100 µM
TGI [7]: > 100 µM
TGI [8]: > 100 µM
TGI [9]: > 100 µM

CC1CCCN(CC(O)CN2CCCc3ccccc32)C1 (stereo not given)
TGI [1]: > 100 µM
TGI [10]: > 100 µM
TGI [2]: > 100 µM
TGI [3]: > 100 µM
TGI [4]: 46.6 µM
TGI [5]: > 100 µM
TGI [6]: > 100 µM
TGI [7]: > 100 µM
TGI [9]: > 100 µM

CCOC(=O)c1cc2cc(NC(=O)c3cc4cc([N+](=O)[O-])ccc4n3C)ccc2n1C
GI50 [1]: 14.1 µM
TGI [1]: 30.9 µM
GI50 [10]: 97.5 µM
TGI [10]: > 100 µM
GI50 [2]: 22.7 µM
TGI [2]: > 100 µM
GI50 [3]: 31.7 µM
TGI [3]: > 100 µM
GI50 [4]: > 100 µM
TGI [4]: > 100 µM
GI50 [5]: 12.3 µM
TGI [5]: 27.1 µM
GI50 [6]: > 100 µM
TGI [6]: > 100 µM
GI50 [9]: 46.6 µM
TGI [9]: > 100 µM

COc1ccc(OC)c(-c2cc(-c3ccccc3)nn2-c2ccc(S(N)(=O)=O)cc2)c1
GI50 [10]: 18.9 µM
TGI [10]: 59.1 µM
GI50 [3]: 5.91 µM
TGI [3]: 19 µM
GI50 [4]: 23.6 µM
TGI [4]: > 100 µM
GI50 [5]: 12.1 µM
TGI [5]: 24.7 µM
GI50 [6]: 8.04 µM
TGI [6]: 30 µM
GI50 [8]: 18.7 µM
TGI [8]: 36.6 µM
GI50 [9]: 15.2 µM
TGI [9]: 31.6 µM

COC(=O)C1=C(c2cc(OC)c(OC)c(OC)c2)OC(c2cc(OC)c(OC)c(OC)c2)C1COC(C)=O (stereo not given)
TGI [1]: > 100 µM
TGI [2]: > 100 µM
TGI [3]: > 100 µM
TGI [4]: 30.5 µM
TGI [5]: > 100 µM
TGI [6]: > 100 µM
TGI [7]: > 100 µM
TGI [8]: > 100 µM
TGI [9]: > 100 µM

COc1ccc(NC(=O)Nc2ccc(Nc3nc(C)cc(Nc4ccc(C)cc4)n3)cc2)cc1
GI50 [1]: 1.72 µM
TGI [1]: 3.21 µM
GI50 [10]: 2.22 µM
TGI [10]: 5.4 µM
GI50 [2]: 1.06 µM
TGI [2]: 3.45 µM
GI50 [3]: 1.35 µM
TGI [3]: 2.81 µM
GI50 [5]: 1.41 µM
TGI [5]: 3.04 µM
GI50 [6]: 1.93 µM
TGI [6]: 4.42 µM
GI50 [7]: 2.46 µM
TGI [7]: 6.59 µM
GI50 [8]: 1.7 µM
TGI [8]: 3.31 µM
GI50 [9]: 1.89 µM
TGI [9]: 3.69 µM

O=C(N=Nc1c(O)[nH]c2c(Cl)cc(Cl)cc12)c1ccncc1
TGI [1]: 41.6 µM
TGI [10]: > 100 µM
TGI [2]: > 100 µM
TGI [3]: 37.5 µM
TGI [4]: > 100 µM
TGI [5]: 33 µM
TGI [7]: 69.8 µM
TGI [8]: 51.1 µM
TGI [9]: 48.9 µM

O=C1NC(=O)C2(CCC(O)C2)c2cc[n+]([O-])cc21 (stereo not given)
TGI [1]: > 100 µM
TGI [10]: > 100 µM
TGI [2]: > 100 µM
TGI [3]: > 100 µM
TGI [5]: > 100 µM
TGI [6]: > 100 µM
TGI [7]: > 100 µM
TGI [8]: > 100 µM
TGI [9]: > 100 µM

COc1ccc2c(c1OC)-c1c(c3ccc([N+](=O)[O-])cc3c(=O)n1CCCN=[N+]=[N-])C2=O
GI50 [1]: 6.2 µM
TGI [1]: > 100 µM
GI50 [10]: > 100 µM
TGI [10]: > 100 µM
GI50 [2]: 3.62 µM
TGI [2]: > 100 µM
GI50 [3]: 56.1 µM
TGI [3]: > 100 µM
GI50 [5]: 4.59 µM
TGI [5]: > 100 µM
GI50 [6]: 3 µM
TGI [6]: 51.7 µM
GI50 [7]: 19.4 µM
TGI [7]: > 100 µM
GI50 [8]: 5.23 µM
TGI [8]: 40.3 µM
GI50 [9]: 17.2 µM
TGI [9]: > 100 µM

Cc1ccc(C2SCc3nc4ccc(C(=O)c5ccccc5)cc4n32)cc1 (stereo not given)
GI50 [1]: 5.09 µM
TGI [1]: > 83.7 µM
GI50 [10]: 22.2 µM
TGI [10]: 68.9 µM
GI50 [2]: 12.4 µM
TGI [2]: > 71.9 µM
GI50 [3]: 6.72 µM
TGI [3]: 21.9 µM
GI50 [5]: 5.29 µM
TGI [5]: 19.3 µM
GI50 [6]: 7.93 µM
TGI [6]: 38.2 µM
GI50 [7]: 20.5 µM
TGI [7]: 47.8 µM
GI50 [8]: 13.4 µM
TGI [8]: 32.5 µM
GI50 [9]: 22 µM
TGI [9]: > 61.9 µM

CC(C)=CCC/C(C)=C/CC/C(=C/COP(=O)(OCc1ccc([N+](=O)[O-])o1)N(C)CCCCCl)CC=C(C)C (stereo not given)
GI50 [1]: 2.78 µM
TGI [1]: 11.8 µM
GI50 [2]: 19.5 µM
TGI [2]: 41.9 µM
GI50 [3]: 11.6 µM
TGI [3]: 29.4 µM
GI50 [4]: 4.81 µM
TGI [4]: > 100 µM
GI50 [5]: 14.3 µM
TGI [5]: 32.5 µM
GI50 [6]: 2.04 µM
TGI [6]: 7.47 µM
GI50 [7]: 18.2 µM
TGI [7]: 55.8 µM
GI50 [8]: 3.52 µM
TGI [8]: 11.9 µM
GI50 [9]: 6.57 µM
TGI [9]: 22.5 µM

CN(/N=C/c1ccnc2ccccc12)c1ccc([N+](=O)[O-])cc1[N+](=O)[O-]
TGI [1]: > 100 µM
TGI [2]: > 100 µM
TGI [3]: > 100 µM
TGI [4]: > 100 µM
TGI [5]: > 100 µM
TGI [6]: > 100 µM
TGI [7]: > 100 µM
TGI [8]: > 100 µM
TGI [9]: > 100 µM

O=C(CCCNC(=O)OCc1ccccc1)OCc1ccc2c(c1)C(=O)c1ccccc1C2=O
TGI [1]: > 100 µM
TGI [2]: > 100 µM
TGI [3]: > 100 µM
TGI [4]: > 100 µM
TGI [5]: > 100 µM
TGI [6]: > 100 µM
TGI [7]: 79 µM
TGI [8]: 57.8 µM
TGI [9]: > 100 µM

NS(=O)(=O)c1ccc(NC(=O)CC(=O)Nc2ccc(S(N)(=O)=O)cc2)cc1
TGI [1]: > 100 µM
TGI [2]: > 100 µM
TGI [3]: > 100 µM
TGI [4]: > 100 µM
TGI [5]: > 100 µM
TGI [6]: > 100 µM
TGI [7]: > 100 µM
TGI [8]: > 100 µM
TGI [9]: > 100 µM

CCCCSCc1nc2nc(Cl)c(Cl)nc2[nH]1
TGI [1]: 55.6 µM
TGI [10]: > 100 µM
TGI [2]: > 100 µM
TGI [3]: 36.7 µM
TGI [5]: 29.5 µM
TGI [6]: 42.6 µM
TGI [7]: 57.2 µM
TGI [8]: > 100 µM
TGI [9]: 44.5 µM

O=C(/C=C/c1c(O)ccc2ccccc12)c1cccc2ccccc12
TGI [1]: > 100 µM
TGI [2]: > 100 µM
TGI [3]: > 100 µM
TGI [4]: > 63.7 µM
TGI [5]: > 100 µM
TGI [6]: > 100 µM
TGI [7]: > 100 µM
TGI [8]: > 100 µM
TGI [9]: > 100 µM
